The values that follow are results of earlier work, collected in patent US20200188266A1, “Oral Care Compositions and Methods of Use” (priority 2017, published 2020).

The conditions of this series: DI water at about 35° C.

On to `CC(=O)c1c(O)c(C)c(O)c2c1OC1=CC(=O)C(C(C)=O)C(=O)C12C` (stereo not shown) [usnic acid], for which the solubility entry was “about 6.3 ppm”.
